The text below walks through data of US9937199B2, “Materials and methods for preventing and treating anastomotic leaks” (THE UNIVERSITY OF CHICAGO, priority 2012, dated 2018).

Each structure is given as a SMILES string. Values after ≈ are worked out from the molar mass of the structure shown.

One assay relates to P. aeruginosa MPAO1-P2. Briefly: Antibiotic resistance of P2 strain. The format is cell-based, Pseudomonas aeruginosa. The note with it: for fold higher resistance of P2 strain compared to P1 strain: P2 vs P1. The protocol:
FIG. 11. Chloramphenicol resistance of P1 and P2 strains. Strains were cultured in TSB containing 250 μg/ml chloramphenicol and grown in 96-well plate (150 μl/well, shaking at 150 rpm, 37° C. Cell density was measured on Plate Reader at OD 600 nm. Values represent the mean of triplicate cultures.

A further assay relates to P. aeruginosa MPAO1-P1. Briefly: Antibiotic resistance of P1 strain. The format is cell-based. As to conditions: Pseudomonas aeruginosa, MPAO1P1.

Regarding `O=C(N[C@H](CO)[C@H](O)c1ccc([N+](=O)[O-])cc1)C(Cl)Cl` [chloramphenicol], the “fold higher resistance of P2 strain compared to P1 strain” value in the assay with P. aeruginosa MPAO1-P2 was “about 6 fold”.
Consider `CCn1cc(C(=O)O)c(=O)c2cc(F)c(N3CCNCC3)cc21` [norfloxacin], for which the MIC (commonly the lowest concentration that inhibits growth of the organism) was found to be 0.38 mg/L (≈ 1.19 µM) in the assay with P. aeruginosa MPAO1-P1 and 3.8 mg/L (≈ 11.9 µM) against P. aeruginosa MPAO1-P2 (Pseudomonas aeruginosa, MPAO1P2, P2 strain). Moreover, in the assay on P. aeruginosa MPAO1-P2, the “fold higher resistance of P2 strain compared to P1 strain” value is listed as 10 fold.
